Assay results from paper PMC8402715 (Viruses, 2021).

What was measured:
[1] = tested on: host genes in mock-infected RPE cells; type: cell-based, human; settings: 10 μM, 8 h; for expression of PTGS2: mock-infected RPE cells; for expression of PDE4D, CRISPLD2 and PTGES / expression of SLC26A4, FAM111B and CCNE2: non-infected RPE cells, compared to non-treated cells
[2] = tested on: host genes in FLUAV-infected RPE cells; type: cell-based, human; settings: 10 μM, 8 h; for expression of PTGS2: virus-infected RPE cells (FLUAV moi 1); for FLUAV-activated host gene expression: FLUAV-infected RPE cells (moi 1)
[3] = Cell viability assay (Cell Titer Glow) in mock-infected RPE cells, cytotoxicity; settings: human
[4] = tested on: viral RNAs of influenza A/WSN/33(H1N1) virus; type: cell-based, influenza A virus in human RPE cells
FLUAV-infected RPE cells = test: Metabolomics of polar metabolites in media of FLUAV-infected RPE cells; settings: infected RPE cells (FLUAV moi 1), 10 μM, 24 h

CCC(C)(C)C(=O)O[C@H]1C[C@@H](C)C=C2C=C[C@H](C)[C@H](CC[C@@H]3C[C@@H](O)CC(=O)O3)[C@H]21 [simvastatin, Simvastatin]
expression of PTGS2 [1]: increased
expression of PTGS2 [2]: increased
CC50 at 48 h [3]: 48.3 µM

C#C[C@]1(O)CC[C@H]2[C@@H]3CCC4=CCCC[C@@H]4[C@H]3C(=C)C[C@@]21CC [desogestrel, Desogestrel]
CC50 at 48 h [3]: 34.5 µM

COC(=O)C1=C(C)NC(C)=C(C(=O)OC(C)(C)CN(C)CCC(c2ccccc2)c2ccccc2)C1c1cccc([N+](=O)[O-])c1 (stereo not shown) [lercanidipine, Lercanidipine]
expression of PTGS2 [1]: increased
expression of PTGS2 [2]: increased

C=C1CC[C@H](O)C/C1=C/C=C1\CCC[C@]2(C)[C@@H]([C@H](C)/C=C/[C@H](C)C(C)C)CC[C@@H]12 [vitamin D2, Vitamin D2]
CC50 at 48 h [3]: 42.1 µM

C=C1CC[C@H](O)C/C1=C/C=C1\CCC[C@]2(C)[C@@H]([C@H](C)CCCC(C)C)CC[C@@H]12 [vitamin D3, Vitamin D3 (colecalciferol)]
CC50 at 48 h [3]: 48.8 µM

CN(C)C(=N)N=C(N)N [metformin, Metformin]
effect on polyadenylated viral RNAs [4]: differentially affected

CC(=O)Oc1ccccc1C(=O)O [acetylsalicylic acid, Acetylsalicylic acid]
levels of many polar metabolites in the media (FLUAV-infected RPE cells): elevated

COc1ccc2nc([S@@+]([O-])Cc3ncc(C)c(OC)c3C)[nH]c2c1 [esomeprazole, Esomeprazole]
expression of PTGS2 [1]: increased
expression of PTGS2 [2]: increased

OCc1cc(C(O)CNCCCCCCOCCCCc2ccccc2)ccc1O (stereo not shown) [salmeterol, Salmeterol]
expression of PDE4D, CRISPLD2 and PTGES [1]: increased
expression of SLC26A4, FAM111B and CCNE2 [1]: decreased
FLUAV-activated host gene expression [2]: did not affect
CC50 at 48 h [3]: 29.3 µM

CCOC(=O)C1=C(COCCN)NC(C)=C(C(=O)OC)C1c1ccccc1Cl (stereo not shown) [amlodipine, Amlodipine]
expression of PTGS2 [1]: increased
expression of PTGS2 [2]: increased
levels of many polar metabolites in the media (FLUAV-infected RPE cells): elevated

CCOc1nc2cccc(C(=O)O)c2n1Cc1ccc(-c2ccccc2-c2nnn[nH]2)cc1 [candesartan, Candesartan]
levels of many polar metabolites in the media (FLUAV-infected RPE cells): elevated

CCCCNc1cc(C(=O)O)cc(S(N)(=O)=O)c1Oc1ccccc1 [bumetanide, Bumetanide]
levels of many polar metabolites in the media (FLUAV-infected RPE cells): elevated

CC(C)(C)NCC(O)c1ccc(O)c(CO)c1 (stereo not shown) [salbutamol, Salbutamol]
expression of PDE4D, CRISPLD2 and PTGES [1]: increased
expression of SLC26A4, FAM111B and CCNE2 [1]: decreased
FLUAV-activated host gene expression [2]: did not affect

CN[C@H]1CC[C@@H](c2ccc(Cl)c(Cl)c2)c2ccccc21 [sertraline, Sertraline]
expression of PTGS2 [1]: increased
expression of PTGS2 [2]: increased
CC50 at 48 h [3]: 17.5 µM

C[C@]12CCC(=O)C=C1[C@@H]1C[C@@H]1[C@H]1[C@@H]3[C@@H]4C[C@@H]4[C@@]4(CCC(=O)O4)[C@@]3(C)CC[C@@H]12 [drospirenone, Drospirenone]
expression of PTGS2 [1]: increased
expression of PTGS2 [2]: increased

CC(=O)Nc1ccc(O)cc1 [4-acetamidophenol]
levels of many polar metabolites in the media (FLUAV-infected RPE cells): elevated

C#C[C@]1(O)CC[C@H]2[C@@H]3CCc4cc(O)ccc4[C@H]3CC[C@@]21C [17a-ethynylestradiol]
levels of many polar metabolites in the media (FLUAV-infected RPE cells): elevated
